Data on three compounds can be found in patent US20130337461A1, “METHOD FOR DIAGNOSIS, MONITORING THE EFFICACY OF A THERAPY AND FOR DEVELOPMENT OF TREATMENT FOR MULTIPLE SCLEROSIS” (priority 2010, published 2013).

Test [1] concerns M03-13 cells. In words: Differentiation of M03-13 cells with low doses of hydrogen peroxide: differentiation markers. The format is cell-based, human.
Test [2] deals with M03-13 cells. In words: Differentiation of M03-13 cells with PMA: expression or localization of differentiation markers.
Where [3] appears, read: 100 nM PMA 30 min, cells pre-incubated 16 h in 0.2% FBS, Western blotting, vs not differentiated.
The mark [4] stands for this setting: 100 nM PMA 24 h, absence of serum, Western blotting.
[5] abbreviates: 200 μM H2O2 for 4 days in complete medium, Western blotting.

Consider `CC(=O)N[C@@H](CS)C(=O)O` [NAC, N-Acetyl-Cysteine], for which the “reversal of hydrogen peroxide effects on α-SMA, P-CREB levels” value with M03-13 cells [1] (200 μM H2O2 in presence of NAC 10 mM or AEBSF 40 μM, Western blotting) is recorded as “reverted hydrogen peroxide effects”.
Take `CCCCCCCCCCCCCC(=O)O[C@@H]1[C@@H](C)[C@@]2(O)[C@@H](C=C(CO)C[C@]3(O)C(=O)C(C)=C[C@@H]23)[C@@H]2C(C)(C)[C@]12OC(C)=O` [PMA, 12-O-Tetradecanoylphorbol-13-acetate]: in the test with M03-13 cells [2] (setting [3]), the P-CREB levels result is “significantly increases” and the P-ERK1/2 levels result is given as “significantly increases”. Further, in the test with M03-13 cells [2] (setting [4]), the Olig-2 levels entry is given as “increased”, the P-CREB levels entry is “increased”, the P-ERK1/2 levels entry is reported as “increased” and the α-SMA levels entry is “decrease”. Moreover, the “translocation of olig-2 from nucleus to cytosol” value in the test on M03-13 cells [2] (100 nM PMA 24 h, medium without serum, confocal microscopy) is “a cytoplasmic staining of the cells became evident”. Further, the α-SMA signal entry in the test with M03-13 cells [2] (100 nM PMA serum-free medium, 1 and 4 days, confocal microscopy, vs not differentiated cells) was “decreased”. Besides, the Olig-2 fluorescent signal result in the test on M03-13 cells [2] (100 nM PMA serum-free medium, 1 day and 4 days, confocal microscopy, vs not differentiated cells) is “progressively increased”. The MBP signal result in the test with M03-13 cells [2] (100 nM PMA serum-free medium, 1 day or 4 days, confocal microscopy, vs not differentiated cells) is “increased”. Besides, the “mAchR M1 level” value in the test on M03-13 cells [2] (100 nM PMA, absence of serum, 4 days, Western blotting) was “increased”. Also, the “cytosolic MBP levels” value with M03-13 cells [2] (100 nM PMA, absence of serum, 4 days, cell fractionation and Western blotting) is on record as “decreases”. In addition, in the test with M03-13 cells [2] (100 nM PMA, medium without serum, 24 h and 4 days, flow cytometric analysis), the MBP protein levels result is recorded as “time-dependent increase”.
hydrogen peroxide [H2O2]: the “total MBP protein levels” value in the test on M03-13 cells [1] (200 μM H2O2 4d, flow cytometric analysis) is recorded as “increases”. Further, the “translocation of olig-2 from nucleus to cytosol” value in the test on M03-13 cells [1] (200 μM H2O2, 30 min and 24 h, confocal microscopy) was “a cytoplasmic staining of the cells became evident already after 30 min”. The α-SMA signal result in the test on M03-13 cells [1] (200 μM H2O2 complete medium, 1 and 4 days, confocal microscopy, vs not differentiated cells) is listed as “decreased”. The Olig-2 fluorescent signal result in the test on M03-13 cells [1] (200 μM H2O2 complete medium, 1 day and 4 days, confocal microscopy, vs not differentiated cells) is recorded as “progressively increased”. In the test on M03-13 cells [1] (setting [5]), the P-CREB levels entry is given as “induces”, the P-ERK1/2 levels result was “not affected” and the α-SMA levels entry is “decreases”. The “cytosolic MBP levels” value in the test on M03-13 cells [1] (200 μM hydrogen peroxide 4 days, complete medium, cell fractionation and Western blotting) is listed as “decreases”. Moreover, the “differentiation of oligodendrocyte precursors to differentiated cells” value in the test with M03-13 cells [1] (low doses of hydrogen peroxide, overall conclusion) is “induces the differentiation”.
